Data published in patent US6313305A, “Cephalosporins” (Hoechst Marion Roussel, priority 1991, dated 2001).
Values after ≈ are worked out from the molar mass of the structure shown. Where a name gives a salt, the structure may show the parent alone.

How the values were obtained:
Format in all cases: cell-based
[1] = system: Enterobacteria producing cephalosporinases (20 strains); test: In vitro activity, method of dilutions in solid medium (TABLE II): Enterobacteria producing cephalosporinases; conditions: 24 h
Procedure: (§1) In Vitro Activity, Method of Dilutions in Solid Medium
(§2) A series of dishes was prepared in which an equal amount of sterile nutritional medium was distributed containing increasing amounts of the test product. Then, each dish was seeded with several bacteria strains and after incubation in an oven for 24 hours at 37° C., the growth inhibition was evaluated by the absence of any bacterial development, which allowed the minimal inhibiting concentrations (M.I.C.) to be determined expressed in micrograms/ml. The results were expressed in M.I.C. 90 which is the minimum concentration of antibiotic allowing the growth of the strains studied to be inhibited by […] (TABLE II).

[2] = system: Pseudomonas Aeruginosa (39 strains); test: In vitro activity, method of dilutions in solid medium (TABLE II): Pseudomonas aeruginosa; conditions: 24 hours at 37° C.
Procedure: as §1, §2

[3] = system: oracillin-sensitive penicillin-resistants Staphylococci aureus (20 strains); test: In vitro activity, method of dilutions in solid medium (TABLE II): oracillin-sensitive penicillin-resistant Staphylococcus aureus; conditions: 24 hours at 37° C.
Procedure: as §1, §2

[4] = system: Enterobacteria producting β lactamase with enlarged spectrum (16 strains); test: In vitro activity, method of dilutions in solid medium (TABLE II): Enterobacteria producing β lactamase with enlarged spectrum; conditions: 24 h
Procedure: as §1, §2

Nc1nc(/C(=N/OC(C(=O)O)c2cc(Cl)c(O)c(O)c2Cl)C(=O)N[C@@H]2C(=O)N3C(C(=O)[O-])=C(/C=C/C[n+]4cccc5c4CCC5)CS[C@H]23)cs1 (stereo partly drawn) [Example 27, Internal salt of (6R-(3-(E) 6α, 7β-(Z)))-1-(3-(7-(((2-amino-4-thiazolyl)-(carboxy-(2,5-dichloro-3,4-dihydroxy-phenyl)-methoxy)-imino)-acetamido)-2-carboxy-8-oxo-5-thia-1-azabicyclo[4,2,0]oct-2-en-3-yl)-2-propenyl)-6,7-dihydro-5H-pyrindinium]
MIC90 [1]: 0.3 µg/mL | MIC90 [2]: 0.08 µg/mL | MIC90 [3]: 5 µg/mL | MIC90 [4]: 10 µg/mL

Nc1nc(/C(=N/OC(C(=O)O)c2cc(F)c(O)c(O)c2F)C(=O)N[C@@H]2C(=O)N3C(C(=O)[O-])=C(/C=C/C[n+]4ccn5ccccc54)CS[C@H]23)cs1 (stereo partly drawn) [Example 39, Internal Salt of (6R-(3-(E) 6α, 7β(Z)))-1-(3-(7-(((2-Amino-4-thiazolyl)(carboxy-(2,5-difluoro-3,4-dihydroxyphenyl)-methoxy)-imino)-acetamido)-2-carboxy-8-oxo-5-thia-1-azabicyclo[4,2,0]oct-2-en-3-yl)-2-propenyl)-imidazo(1,2-a)pyridinium]
MIC90 [1]: 0.3 µg/mL | MIC90 [2]: 0.08 µg/mL | MIC90 [3]: 2.5 µg/mL | MIC90 [4]: 2.5 µg/mL

COc1cc(C(O/N=C(\C(=O)N[C@@H]2C(=O)N3C(C(=O)[O-])=C(/C=C/C[n+]4cccc5ccccc54)CS[C@H]23)c2csc(N)n2)C(=O)O)c(Cl)c(O)c1O (stereo partly drawn) [Example 43]
MIC90 [1]: 2.5 µg/mL (≈ 3.26 µM) | MIC90 [2]: 1.2 µg/mL (≈ 1.56 µM) | MIC90 [3]: 0.3 µg/mL (≈ 0.391 µM) | MIC90 [4]: 1.2 µg/mL (≈ 1.56 µM)
